Measured values published in publication PMC6434083, “Identification and characterization of two types of amino acid-regulated acetyltransferases in actinobacteria” (Bioscience Reports, 2017).
Values belong to the molecule of their own block, whether it stands above or below them.

Key:
AmiPatA = biological target: T1, AmiPatA (Actinosynnema mirum, UniProt C6WC99); assay: coupled NADH assay, initial rate; CD shift also seen; format: biochemical; details: allosteric activator, ACT domain; co-substrates Ac-CoA and AmiAcs
T1 construct: gene Amir_5672; gene amplified from genomic DNA, pET-28a, E. coli BL21-DE3, purified; ACT-GNAT domains
T1 sequence (C6WC99 1-372): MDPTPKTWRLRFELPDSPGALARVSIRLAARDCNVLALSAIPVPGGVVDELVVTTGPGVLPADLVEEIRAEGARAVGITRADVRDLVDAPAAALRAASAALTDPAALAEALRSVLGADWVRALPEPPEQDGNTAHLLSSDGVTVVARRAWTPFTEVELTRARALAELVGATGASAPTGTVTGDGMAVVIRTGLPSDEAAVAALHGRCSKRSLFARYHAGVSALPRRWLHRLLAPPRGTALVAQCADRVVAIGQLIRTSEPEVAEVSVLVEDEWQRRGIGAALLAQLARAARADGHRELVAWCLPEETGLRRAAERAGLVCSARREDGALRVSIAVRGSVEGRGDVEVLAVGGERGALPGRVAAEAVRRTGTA

SvePatA [1] = biological target: T2, SvePatA (Streptomyces venezuelae, UniProt F2RA54); assay: coupled NADH assay, initial rate; CD shift also seen with […] Asn; format: biochemical; details: allosteric activator; co-substrates Ac-CoA and SveAcs
T2 construct: gene SVEN_0867; gene amplified from genomic DNA, pET-28a, E. coli BL21-DE3, purified; ACT-GNAT domains
T2 sequence (F2RA54 1-488): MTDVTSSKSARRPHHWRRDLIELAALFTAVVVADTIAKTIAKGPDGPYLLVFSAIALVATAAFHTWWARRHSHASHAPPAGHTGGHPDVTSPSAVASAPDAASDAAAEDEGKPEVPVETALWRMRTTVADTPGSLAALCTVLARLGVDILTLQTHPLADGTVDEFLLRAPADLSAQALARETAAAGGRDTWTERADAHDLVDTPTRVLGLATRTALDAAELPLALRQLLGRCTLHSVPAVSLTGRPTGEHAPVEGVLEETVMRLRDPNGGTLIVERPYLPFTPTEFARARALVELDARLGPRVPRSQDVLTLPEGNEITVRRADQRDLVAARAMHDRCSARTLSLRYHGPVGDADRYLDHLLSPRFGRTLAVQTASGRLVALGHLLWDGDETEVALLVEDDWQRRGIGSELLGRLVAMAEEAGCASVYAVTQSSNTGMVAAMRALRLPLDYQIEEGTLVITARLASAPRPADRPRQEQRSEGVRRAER

SvePatA [2] = biological target: T3, SvePatA (Streptomyces venezuelae, UniProt F2RA54, K112A); assay: acetyltransferase activity with Asn; format: biochemical; details: allosteric; co-substrates Ac-CoA and SveAcs
T3 construct: gene SVEN_0867; gene amplified from genomic DNA, pET-28a, E. coli BL21-DE3, purified; ACT-GNAT domains

purified protein = substrate: CC(=O)SCCNC(=O)CCNC(=O)[C@H](O)C(C)(C)COP(=O)(O)OP(=O)(O)OC[C@H]1O[C@@H](n2cnc3c(N)ncnc32)[C@H](O)[C@@H]1OP(=O)(O)O; assay: purified protein; format: biochemical, Actinosynnema mirum; details: co-substrate AmiAcs; no Cys

T3 sequence (F2RA54 entry or part of it K112A): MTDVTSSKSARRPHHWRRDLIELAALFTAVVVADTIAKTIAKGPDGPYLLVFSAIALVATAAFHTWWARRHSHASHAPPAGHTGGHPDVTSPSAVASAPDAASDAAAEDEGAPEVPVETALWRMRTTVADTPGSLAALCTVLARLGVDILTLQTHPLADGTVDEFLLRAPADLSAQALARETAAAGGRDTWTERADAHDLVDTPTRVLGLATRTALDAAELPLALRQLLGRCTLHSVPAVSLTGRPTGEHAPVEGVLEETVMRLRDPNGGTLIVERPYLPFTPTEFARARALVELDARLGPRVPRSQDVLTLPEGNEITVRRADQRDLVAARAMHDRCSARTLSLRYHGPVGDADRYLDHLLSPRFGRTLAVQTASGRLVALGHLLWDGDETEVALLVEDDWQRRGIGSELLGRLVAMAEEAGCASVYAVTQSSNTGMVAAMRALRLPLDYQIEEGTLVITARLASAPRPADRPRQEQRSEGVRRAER

% of initial rate without Cys (3.8 to 6.8 μM/min) (AmiPatA): 179%
Molecule: N[C@@H](CS)C(=O)O [Cys]

% of initial rate without Asn (2.23 to 3.92 nmol NADH per min/ml) (SvePatA [1]): 176%
Molecule: NC(=O)C[C@H](N)C(=O)O [Asn]
activation still observed (SvePatA [2]): Allosteric effect of Asn on SvePatA activity was still observed in two mutants K112A

B1: AmiPatA (Actinosynnema mirum DSM 43827) (protein)
chain: T1 sequence (C6WC99 1-372)
notes: gene amplified from genomic DNA, pET-28a, E. coli BL21-DE3, purified; ACT-GNAT domains
Km (purified protein): 5.5 ± 1.1 µM
kcat (purified protein): 0.19 ± 0.008 s⁻¹
kcat/Km (purified protein): 36000 ± 8000 M⁻¹ s⁻¹
